Measurements taken from US6677429B1, “Echinocandin derivatives, preparation method and application as anti-fungal agents” (Aventis Pharma S.A., priority 1997, dated 2004).

biological target: T1, Glucane Synthesis of Candida albicans (Candida albicans, UniProt O13428); assay: Inhibition of the Glucane Synthesis of Candida albicans; type: biochemical; details: purified Candida albicans membranes, 14C-UDP glucose, 25° C. for 1 hour, radioactivity on filter counted
T1 construct: 22.5 µg of membrane proteins are incubated in a mixture of 2 Mm of 14C-UDP glucose; endogenous in cells
T1 sequence (O13428 1-1897): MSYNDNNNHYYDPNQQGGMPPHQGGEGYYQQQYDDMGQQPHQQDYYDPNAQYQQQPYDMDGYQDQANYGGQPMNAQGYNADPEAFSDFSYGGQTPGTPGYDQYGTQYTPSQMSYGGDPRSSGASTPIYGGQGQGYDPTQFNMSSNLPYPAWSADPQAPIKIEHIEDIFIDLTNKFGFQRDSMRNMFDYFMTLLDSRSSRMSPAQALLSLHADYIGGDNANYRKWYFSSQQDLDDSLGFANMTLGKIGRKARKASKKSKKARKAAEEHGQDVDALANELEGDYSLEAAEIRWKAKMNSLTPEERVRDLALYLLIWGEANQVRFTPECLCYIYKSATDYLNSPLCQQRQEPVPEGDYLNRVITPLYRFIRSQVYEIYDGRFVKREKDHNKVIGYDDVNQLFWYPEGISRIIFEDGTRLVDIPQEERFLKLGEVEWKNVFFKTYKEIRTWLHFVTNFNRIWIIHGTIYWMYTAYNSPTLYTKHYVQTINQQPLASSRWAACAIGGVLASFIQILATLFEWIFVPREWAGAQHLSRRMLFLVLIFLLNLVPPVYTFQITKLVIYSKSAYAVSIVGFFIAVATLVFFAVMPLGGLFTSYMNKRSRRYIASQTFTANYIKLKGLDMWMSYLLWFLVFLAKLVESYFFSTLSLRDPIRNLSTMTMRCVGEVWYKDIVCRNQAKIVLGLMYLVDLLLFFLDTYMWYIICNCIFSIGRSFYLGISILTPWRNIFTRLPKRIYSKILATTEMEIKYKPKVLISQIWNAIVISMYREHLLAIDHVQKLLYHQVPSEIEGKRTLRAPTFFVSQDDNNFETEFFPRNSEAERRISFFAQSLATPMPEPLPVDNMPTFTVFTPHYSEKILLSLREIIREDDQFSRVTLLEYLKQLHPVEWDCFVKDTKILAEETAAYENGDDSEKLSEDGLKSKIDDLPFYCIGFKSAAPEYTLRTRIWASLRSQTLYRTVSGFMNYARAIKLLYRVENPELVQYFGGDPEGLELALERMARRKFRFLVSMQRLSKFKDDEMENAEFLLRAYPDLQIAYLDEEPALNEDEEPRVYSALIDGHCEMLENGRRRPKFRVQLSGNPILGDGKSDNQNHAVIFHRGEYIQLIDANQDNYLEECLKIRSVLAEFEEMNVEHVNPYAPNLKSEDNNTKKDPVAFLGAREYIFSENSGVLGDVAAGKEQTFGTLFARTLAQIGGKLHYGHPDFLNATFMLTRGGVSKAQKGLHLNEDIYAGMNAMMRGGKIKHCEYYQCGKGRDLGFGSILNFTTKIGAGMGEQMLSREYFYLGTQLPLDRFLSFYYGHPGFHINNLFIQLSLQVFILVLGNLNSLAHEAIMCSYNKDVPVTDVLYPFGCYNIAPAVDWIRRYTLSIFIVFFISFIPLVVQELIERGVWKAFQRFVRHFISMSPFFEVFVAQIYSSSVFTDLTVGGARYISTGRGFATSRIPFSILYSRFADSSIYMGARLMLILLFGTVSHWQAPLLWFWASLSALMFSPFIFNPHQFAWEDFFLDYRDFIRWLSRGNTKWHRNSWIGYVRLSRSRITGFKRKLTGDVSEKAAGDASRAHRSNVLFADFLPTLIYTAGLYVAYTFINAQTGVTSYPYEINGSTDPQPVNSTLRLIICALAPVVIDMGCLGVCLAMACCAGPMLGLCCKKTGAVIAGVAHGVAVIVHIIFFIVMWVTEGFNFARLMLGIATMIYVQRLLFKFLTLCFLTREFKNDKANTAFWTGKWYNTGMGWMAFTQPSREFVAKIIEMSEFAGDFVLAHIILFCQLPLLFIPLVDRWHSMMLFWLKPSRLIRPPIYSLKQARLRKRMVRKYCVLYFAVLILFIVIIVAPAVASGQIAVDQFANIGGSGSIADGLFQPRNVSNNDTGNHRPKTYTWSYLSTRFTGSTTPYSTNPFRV
T1 sequence (O42825 whole entry partner): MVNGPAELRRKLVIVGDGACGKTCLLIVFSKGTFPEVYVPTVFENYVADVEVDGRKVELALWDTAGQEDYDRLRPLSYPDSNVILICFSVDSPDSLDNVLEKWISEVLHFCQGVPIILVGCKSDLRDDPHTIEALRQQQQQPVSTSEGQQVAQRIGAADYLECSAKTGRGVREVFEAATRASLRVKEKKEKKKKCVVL
Experimental: A—Inhibition of the Glucane Synthesis of Candida albicans.
The membranes of Candida albicans are purified according to the process described by Tang and al Antimicrob. Agents Chemother 35, 99-103, 1991. 22.5 µg of membrane proteins are incubated in a mixture of 2 Mm of 14C-UDP glucose (specific activity=0.34mCi./mmol, 50 μg of α-amylase, 1Mm of dithiotreitol (DTT), 1Mm EDTA, 100 Mm NaF, 7 μM of GTP-γ-S, 1M of sucrose and 5 oMm OF Ttris-HCL (pH 7.8) in a volume of 100 μl. The medium is incubated at 25° C. for 1 hour and the reaction terminated by addition of TCA to a final concentration of 5%. The reaction medium is transferred onto a pre-humidified glass fibre filter. The filter is washed, dried and its radioactivity is counted.
Mulundocandin is used as positive control.
The control of the medium is carried out with the same quantity of DMSO 1%.

Molecule	Inhibition of the Glucane Synthesis of Candida albicans (activity in this test)
CCCCCCCCOc1ccc(-c2ccc(C(=O)NC3CC(NCCN)CNC(=O)C4C(O)C(C)CN4C(=O)C(CO)NC(=O)C(C(O)Cc4ccc(O)cc4)NC(=O)C4CC(O)CN4C(=O)C(C(C)O)NC3=O)cc2)cc1.O=C(O)C(F)(F)F (single isomer, unassigned; isomer a) [Example 14, Trifluoroacetate of 1-[4-[(2-Aminoethyl)amino]N2-[[4′-(octyloxy)[1.1′-biphenyl]4-yl]carbonyl]-L-ornithine]4-[4-(4-hydroxyphenyl)-L-threonine]-5-L Serine Echinocandin B (Isomer A)]	good activity
(±) Trifluoroacetate of 1-[4-[(Aminoiminomethyl) hydrazono]-N2-(12-methyl-1-oxotetradecyl)-L-ornithine]4-[4-(4-hydroxyphenyl)-L-threonine]-5-L Serine Echinocandin B [Example 11]	good activity
Trifluoroacetate of 1-[4-[(2-Aminoethyl)amino]-N2-(12-methyl-1-oxotetradecyl)-L-ornithine]4-[4-(4-hydroxyphenyl)-L-threonine]-5-L Serine Echinocandin B (Isomer A and Isomer B) [Example 9]	good activity
